Test results published in patent US5254726A, “No-carrier-added (NCA) aryl (18E) fluorides via the nucleophilic aromatic substitution of electron rich aromatic rings” (priority 1991, dated 1993).
“Also recorded” adds a separate entry of the source. Where two headings read alike, the source gives them in different places.

Columns and labels:
[1] = test system: adrenergic nerve terminals; settings: cited from earlier work; for neuronal uptake and storage: literature
dog heart = settings: Wieland et al. 1990, Rosenspire et al. 1989; cited from earlier work
human heart = settings: Schwaiger et al. 1990, Kopin 1990; cited from earlier work
[2] = tracers administered in vivo; Goldstein et al. 1990, Mislankar et al. 1988; cited from earlier work
[3] = literature; cited from earlier work
vesicular transporter = settings: Matthaei et al. 1988; cited from earlier work
dopamine β-hydroxylase [4] = assay type: biochemical; settings: pH 5.7, 30° C.; for product formed by dopamine β-hydroxylase: substrate incubation, chiral HPLC
Description: Two enzyme incubations, with dopamine and 6-fluorodopamine, respectively, were performed simultaneously, as follows:
12(a) Dopamine Hydroxylation. A mixture of 0.5 mg of dopamine, potassium phosphate buffer (0.3 mL, pH 5.7), 0.5M ascorbic acid (0.02 mL, pH 5.7), 1M sodium formate (0.05 mL), and dopamine β-hydroxylase solution (0.05 mL) was stirred in a closed vial at 30° C. The cap was removed and the vial was shaken periodically. An aliquot (ca. 1 μL) was withdrawn and subjected to chiral HPLC analysis as the reaction progressed. HPLC conditions were as follows: Crownpak CR (+) columns, 15×0.46 cm, 254 nm, 0.02M HClO4, 0.7 mL/min.
12(b) 6-Fluorodopamine Hydroxylation. The same procedure was used as described in 12(a), except 0.4 mg of 6-fluorodopamine, kindly provided by Dr. Kenneth Kirk at the National Institutes of Health, was used as a substrate.
Radiat. Isot., 41, 463 (1990) the disclosure of which is incorporated by reference herein, for [^11 C]octopamine enantiomers when a Crownpak CR(+) HPLC column was used.

dopamine β-hydroxylase [5] = settings: Levin et al. 1960; Goldstein et al. 1962; cited from earlier work
[6] = test system: baboon mycocardium (left ventricular wall and septum); experiment: PET study of baboon heart after injection of racemic 6-[^18 F]FNE; assay type: in vivo, baboon (Papio anubis)
Description: (§1) FIG. 8 is a time-activity curve for F-18 in the baboon mycocardium (left ventricular wall and septum) after injection of 5 mCi of racemic 6-[^18 F]FNE. FIG. 9 is a graph showing plasma clearance of F-18 in the baboon after injection of racemic 6-[^18 F]FNE. […] Radioactivity remained at 0.032% of the peak activity by 120 minutes post injection. The ratio of myocardium to plasma was 7 at 5 minutes and 11.2 at 135 minutes. The experiment was carried out as follows:
(§2) Adult female baboons were anesthetized and prepared for PET studies as described by Dewey et al., Synapse, 5, 213 (1990) the description of which is incorporated by reference herein. A solution of racemic 6-[^18 F]FNE (5 mCi, 0.4 μg) in 3 mL of saline was injected intravenously. Scanning was performed for 140 minutes in a Computer Technology Imaging (CTI) positron tomograph (model 931-08/12; 15 slice, 6.5-mm slice thickness, full width at half maximum (FWHM) with an in-plane resolution of 6.0×6.0 mm (FWHM). The following scanning protocol was used: ten 30-s scans, followed by five 60-s scans, followed by ten 5-minute scans, followed by eight 10-minute scans. In every case, an initial transmission scan was performed 2.0 minutes prior to radiotracer injection in order to determine the proper position of the animal in the gantry. Upon completion of this scan, adjustments in position were made as necessary and a regular transmission scan (10 minutes) was performed in order to correct for the attenuation of the annihilation photons. The tomograph was cross calibrated with the well-counter used for the measurement of radioactivity in the plasma samples. A rectilinear scan was performed by placing the baboon's head in the gantry and moving through the rostral caudal extent of the animal (10-mm increments) to include the bladder at the most caudal level. Scanning was performed for 1.5 minutes at each position. Vital signs including heart and respiratory rate were monitored and recorded throughout the length of the study.
The time-activity curve for F-18 after the injection of 6-[^18 F]FNE was generated from a region of interest over the left ventricular wall and the septum. Immediately following completion of the dynamic acquisition, a rectilinear scan (qualitative) was performed beginning at the head and continuing throughout the rostral-caudal extent of the trunk.

[7] = Plasma/blood clearance of F-18 in the baboon; assay type: in vivo, baboon (Papio anubis); settings: racemic, 5 mCi i.v.
Description: as §1
Adult female baboons were anesthetized and prepared for PET studies as described by Dewey et al., Synapse, 5, 213 (1990) the description of which is incorporated by reference herein. A solution of racemic 6-[^18 F]FNE (5 mCi, 0.4 μg) in 3 mL of saline was injected intravenously. […] The tomograph was cross calibrated with the well-counter used for the measurement of radioactivity in the plasma samples. […] Vital signs including heart and respiratory rate were monitored and recorded throughout the length of the study.

[8] = set-up: species or system baboon (Papio anubis); settings: in vivo
Description: as §2, with “A rectilinear scan was performed by placing the baboon's head in the gantry and moving through the rostral caudal extent of the animal (10-mm increments) to include the bladder at the most caudal level. Scanning was performed for 1.5 minutes at each position.” left out, “study. […]” for “study.”

[9] = Vital signs including heart and respiratory rate during PET study; assay type: in vivo, baboon (Papio anubis); settings: at any time during the study; 5 mCi, 0.4 μg i.v.
Description: as §2, with “A rectilinear scan was performed by placing the baboon's head in the gantry and moving through the rostral caudal extent of the animal (10-mm increments) to include the bladder at the most caudal level. Scanning was performed for 1.5 minutes at each position.” left out, “study. […]” for “study.”

For C[C@H](N)[C@H](O)c1cc(O)ccc1[18F] [[^18 F]fluorometaraminol], the “neuronal uptake and storage” value [1] is listed as “share the same uptake and storage mechanisms as norepinephrine”, the “images of the neuronal distribution” value (dog heart) is listed as “excellent images” and the “images of the neuronal distribution” value (human heart) is listed as “excellent images”. The “vasoactivity / hemodynamic effects” value [2] was “hemodynamic effects” and the metabolic stability [3] was “metabolically stable”.
For C[C@H](N[11CH3])[C@H](O)c1cccc(O)c1 [[^11 C]m-hydroxyephedrine], the “neuronal uptake and storage” value [1] is given as “share the same uptake and storage mechanisms as norepinephrine”, the “images of the neuronal distribution” value (dog heart) is given as “excellent images” and the “images of the neuronal distribution” value (human heart) is given as “excellent images”. The metabolic stability [3] was “metabolically stable”.
In the case of NCC(O)c1cc(O)c(O)cc1F (racemic) [6-fluoronorepinephrine], the “neuronal uptake and storage” value [1] is listed as “share the same presynaptic mechanisms for the uptake, storage, and synthesis as the parent molecules” and the “neuronal uptake and storage” value ([1]; listed as racemic 6-fluoronorepinephrine) is listed as “taken up and stored by adrenergic nerve terminals”.
For NC[C@H](O)c1ccc(O)c(O)c1 [norepinephrine], the “stereoselectivity of neuronal uptake” value ([1]; Matthaei et al. 1988) is listed as “not stereoselective” and the “stereoselectivity for vesicular transporter” value (vesicular transporter) is listed as “only the levorotatory enantiomer serves as a substrate for the vesicular transporter”.
For NCCc1cc(O)c(O)cc1[18F] [[^18 F]dopamine, 6-[^18 F]fluorodopamine], the “vasoactivity / hemodynamic effects” value [2] is listed as “hemodynamic effects”.
In the case of NCCc1ccc(O)c(O)c1 [dopamine], the “time to appearance of (-)-NE peak” value (dopamine β-hydroxylase [4]; dopamine as substrate) is given as “less than 1 hour”, the “product formed by dopamine β-hydroxylase” value (dopamine β-hydroxylase [4]) is given as “(+)-NE was not observed” and the “enantiospecific conversion by dopamine β-hydroxylase” value (dopamine β-hydroxylase [5]) is given as “enantiospecifically convert dopamine to (-)-norepinephrine”.
In the case of NCCc1cc(O)c(O)cc1F [6-fluorodopamine], the “product formed by dopamine β-hydroxylase” value (dopamine β-hydroxylase [4]) is given as “a new HPLC peak at 18 minutes appeared” and the “neuronal uptake and storage” value [1] is given as “share the same presynaptic mechanisms for the uptake, storage, and synthesis as the parent molecules”.
For NCC(O)c1cc(O)c(O)cc1[18F] (racemic) [racemic 6-[^18 F]FNE, 6-[^18 F]fluoronorepinephrine], the “peak concentration of F-18 in myocardium” value ([6]; 10 minutes post injection, 5 mCi racemic, i.v.) was 0.042 % of the injected does/cc, the “ratio of myocardium to plasma” value ([6]; at 5 minutes, 5 mCi i.v.) was 7 and the “ratio of myocardium to plasma” value ([6]; at 135 minutes, 5 mCi i.v.) was 11.2. For the same compound, the “uptake and retention/clearance of F-18 in the baboon heart” value ([6]; racemic, 5 mCi i.v.) was “high uptake and retention; also recorded: high uptake and a slow clearance”, the clearance from blood [7] was “rapid clearance from blood” and the distribution of radioactivity [8] was “Radioactivity was distributed in the parotid glands, the heart, liver, and bladder”. The “change in vital signs” value [9] was “no change in vital signs”.
